The source of these data is patent US9925189B2, “Heterocyclic receptor agonists for the treatment of diabetes and metabolic disorders” (CymaBay Therapeutics, Inc., priority 2006, dated 2018).

In the experiment the target is T1, IC-GPCR2 (Homo sapiens, UniProt Q8TDV5, S309L).
T1 construct: expressed in transfected cells
T1 sequence (Q8TDV5 1-335 S309L): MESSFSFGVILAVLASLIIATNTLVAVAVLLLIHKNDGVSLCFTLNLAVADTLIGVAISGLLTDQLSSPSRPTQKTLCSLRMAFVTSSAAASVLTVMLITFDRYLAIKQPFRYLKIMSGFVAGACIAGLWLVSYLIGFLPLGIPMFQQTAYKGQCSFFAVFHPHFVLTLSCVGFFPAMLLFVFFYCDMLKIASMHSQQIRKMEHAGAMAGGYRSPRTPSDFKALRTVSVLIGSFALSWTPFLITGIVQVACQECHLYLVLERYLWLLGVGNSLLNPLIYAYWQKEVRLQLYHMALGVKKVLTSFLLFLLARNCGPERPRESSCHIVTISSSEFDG
Kind of experiment: Stimulation of cAMP in CHO cells stably expressing IC-GPCR2 (HTRF cAMP assay). Type of experiment: cell-based. Conditions: 0.5 h, 30 minutes, IC-GPCR2 stably expressing CHO cells, read-out: Activity at 10 uM (% change in FRET signal from DMSO control). The method, boiled down:
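CHO cells stably expressing IC-GPCR2, plated at 17500 cells/well, treated next day for 30 min in Ham's F12 with compounds at 6–8 concentrations from 0.00003 to 10 μM; parental CHO cells also screened. Intracellular cAMP read by HTRF competitive immunoassay (665/620 nm ratio). Activity given as % FRET change from DMSO control.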
On the technique in general: TR-FRET usually uses a lanthanide donor and a delayed reading to cut background.

As to `CCC(=O)c1cc(F)c(OCc2csc(C3CCN(C(=O)OC(C)(C)C)CC3)n2)c(F)c1` [Example 124, 4-[4-(2,6-Difluoro-4-propionyl-phenoxymethyl)-thiazol-2-yl]-piperidine-1-carboxylic acid tert-butyl ester], the activation at 10 µM stood at 80%.
In the case of `CC(=O)c1ccc(OCc2csc(C3CCN(C(=O)OC(C)(C)C)CC3)n2)c(F)c1` [Example 125, 4-[4-(4-Acetyl-2-fluoro-phenoxymethyl)-thiazol-2-yl]-piperidine-1-carboxylic acid tert-butyl ester] it was 78%; in that of `CC(C)(C)OC(=O)N1CCC(c2nc(COc3ccc(C#N)cc3F)cs2)CC1` [Example 126, 4-[4-(4-Cyano-2-fluoro-phenoxymethyl)-thiazol-2-yl]-piperidine-1-carboxylic acid tert-butyl ester], 87%.
Next, `CC(C)(C)OC(=O)N1CCC(c2nc(COc3ccc(-n4ccnn4)cc3)cs2)CC1` [Example 128, 4-[4-(4-[1,2,3]Triazol-1-yl-phenoxymethyl)-thiazol-2-yl]-piperidine-1-carboxylic acid tert-butyl ester]: 57%.
Consider `CCOC(=O)c1ccc(OCc2csc(C3CCN(C(=O)OC(C)(C)C)CC3)n2)cc1` [Example 129, 4-[4-(4-Ethoxycarbonyl-phenoxymethyl)-thiazol-2-yl]-piperidine-1-carboxylic acid tert-butyl ester], for which the activation at 10 µM was determined as 43%.
Next, `CC(C)(C)OC(=O)Nc1ccc(OCc2csc(C3CCN(C(=O)OC(C)(C)C)CC3)n2)cc1` [Example 130, 4-[4-(4-tert-Butoxycarbonylamino-phenoxymethyl)-thiazol-2-yl]-piperidine-1-carboxylic acid tert-butyl ester]: 53%; `CC(C)(C)OC(=O)N1CCC(c2nc(COc3ccc(C(=O)O)cc3)cs2)CC1` [Example 131, 4-[4-(4-Carboxy-phenoxymethyl)-thiazol-2-yl]-piperidine-1-carboxylic acid tert-butyl ester]: 24%.
Next, `CC(C)(C)OC(=O)N1CCC(c2nc(COc3c(F)cc(S(C)(=O)=O)cc3F)cs2)CC1` [Example 132, 4-[4-(2,6-Difluoro-4-methanesulfonyl-phenoxymethyl)-thiazol-2-yl]-piperidine-1-carboxylic acid tert-butyl ester]: 70%; `CC(C)(C)OC(=O)N1CCC(c2nc(COc3ccc(N4CCOCC4)cc3)cs2)CC1` [Example 133, 4-[4-(4-Morpholin-4-yl-phenoxymethyl)-thiazol-2-yl]-piperidine-1-carboxylic acid tert-butyl ester]: 61%; `CC(C)(C)OC(=O)N1CCC(c2nc(COc3ccc(SC(F)(F)F)cc3)cs2)CC1` [Example 134, 4-[4-(4-Trifluoromethylsulfanyl-phenoxymethyl)-thiazol-2-yl]-piperidine-1-carboxylic acid tert-butyl ester]: 68%.
Next, `CC(C)(C)OC(=O)N1CCC(c2nc(COc3ccc(OCc4ccccc4)cc3)cs2)CC1` [Example 135, 4-[4-(4-Benzyloxy-phenoxymethyl)-thiazol-2-yl]-piperidine-1-carboxylic acid tert-butyl ester]: 66%.
As to `CC(C)(C)OC(=O)N1CCC(c2nc(COc3ccccc3)cs2)CC1` [Example 137, 4-(4-Phenoxymethyl-thiazol-2-yl)-piperidine-1-carboxylic acid tert-butyl ester], the activation at 10 µM amounted to 35%.
Next, `CC(C)(C)OC(=O)N1CCC(c2nc(CNc3ccc(S(C)(=O)=O)cc3)cs2)CC1` [Example 138, 4-{4-[(4-Methanesulfonyl-phenylamino)-methyl]-thiazol-2-yl}-piperidine-1-carboxylic acid tert-butyl ester]: 64%; `CC(C)(C)OC(=O)N1CCC(c2nc(COc3ccc(Br)cc3)cs2)CC1` [Example 140, 4-[4-(4-Bromo-phenoxymethyl)-thiazol-2-yl]-piperidine-1-carboxylic acid tert-butyl ester]: 62%; `CCc1cnc(N2CCC(c3nc(CNc4ccc(S(C)(=O)=O)cc4F)cs3)CC2)nc1` [Example 141, {2-[1-(5-Ethyl-pyrimidin-2-yl)-piperidin-4-yl]-thiazol-4-ylmethyl}-(2-fluoro-4-methanesulfonyl-phenyl)-amine]: 64%.
Next, `CC(C)(C)OC(=O)N1CCC(c2nc(CNCc3ccc(S(C)(=O)=O)cc3)cs2)CC1` [Example 142, 4-{4-[(4-Methanesulfonyl-benzylamino)-methyl]-thiazol-2-yl}-piperidine-1-carboxylic acid tert-butyl ester]: 78%; `C[C@H](NCc1csc(C2CCN(C(=O)OC(C)(C)C)CC2)n1)c1ccc(S(C)(=O)=O)cc1` [Example 143, 4-(4-{[1-(4-Methanesulfonyl-phenyl)-ethylamino]-methyl}-thiazol-2-yl)-piperidine-1-carboxylic acid tert-butyl ester]: 63%; `O=C(OC1CCCCC1)N1CCC(c2nc(COc3ccc(-n4cnnn4)cc3)cs2)CC1` [Example 147, 4-[4-(4-Tetrazol-1-yl-phenoxymethyl)-thiazol-2-yl]-piperidine-1-carboxylic acid cyclohexyl ester]: 56%.
Next, `CC(C)OC(=O)N1CCC(c2nc(COc3ccc(S(C)(=O)=O)cc3F)cs2)CC1` [Example 148, 4-[4-(2-Fluoro-4-methanesulfonyl-phenoxymethyl)-thiazol-2-yl]-piperidine-1-carboxylic acid isopropyl ester]: 74%; `CCCN1CCC(c2nc(COc3ccc(-n4cnnn4)cc3)cs2)CC1` [Example 150, 1-Propyl-4-[4-(4-tetrazol-1-yl-phenoxymethyl)-thiazol-2-yl]-piperidine]: 32%.
For `CC(C)(C)C(=O)CN1CCC(c2nc(COc3ccc(-n4cnnn4)cc3)cs2)CC1` [Example 151, 3,3-Dimethyl-1-{4-[4-(4-tetrazol-1-yl-phenoxymethyl)-thiazol-2-yl]-piperidin-1-yl}-butan-2-one], the activation at 10 µM came out at 54%.
Next, `CCCCN1CCC(c2nc(COc3ccc(-n4cnnn4)cc3)cs2)CC1` [Example 152, 1-Butyl-4-[4-(4-tetrazol-1-yl-phenoxymethyl)-thiazol-2-yl]-piperidine]: 68%; `O=C(CN1CCC(c2nc(COc3ccc(-n4cnnn4)cc3)cs2)CC1)c1ccc(OC(F)(F)F)cc1` [Example 153, 2-{4-[4-(4-Tetrazol-1-yl-phenoxymethyl)-thiazol-2-yl]-piperidin-1-yl}-1-(4-trifluoromethoxy-phenyl)-ethanone]: 44%; `CS(=O)(=O)N1CCC(c2nc(COc3ccc(-n4cnnn4)cc3)cs2)CC1` [Example 154, 1-Methanesulfonyl-4-[4-(4-tetrazol-1-yl-phenoxymethyl)-thiazol-2-yl]-piperidine]: 66%.
Next, `CCCCCCCOC(=O)N1CCC(c2nc(COc3ccc(-n4cnnn4)cc3)cs2)CC1` [Example 155, 4-[4-(4-Tetrazol-1-yl-phenoxymethyl)-thiazol-2-yl]-piperidine-1-carboxylic acid heptyl ester]: 73%; `Cc1ccc(S(=O)(=O)N2CCC(c3nc(COc4ccc(-n5cnnn5)cc4)cs3)CC2)cc1` [Example 156, 4-[4-(4-Tetrazol-1-yl-phenoxymethyl)-thiazol-2-yl]-1-(toluene-4-sulfonyl)-piperidine]: 6%; `CC(C)(C)OCC(=O)N1CCC(c2nc(COc3ccc(-n4cnnn4)cc3)cs2)CC1` [Example 157, 2-tert-Butoxy-1-{4-[4-(4-tetrazol-1-yl-phenoxymethyl)-thiazol-2-yl]-piperidin-1-yl}-ethanone]: 57%.
Next, `CCc1cnc(N2CCC(c3nc(COc4c(F)cc(-n5cnnn5)cc4F)cs3)CC2)nc1` [Example 159, 2-{4-[4-(2,6-Difluoro-4-tetrazol-1-yl-phenoxymethyl)-thiazol-2-yl]-piperidin-1-yl}-5-ethyl-pyrimidine]: 78%; `CCc1cnc(N2CCC(c3nc(COc4ccc(-n5cccc5)cc4)cs3)CC2)nc1` [Example 160, 5-Ethyl-2-{4-[4-(4-pyrrol-1-yl-phenoxymethyl)-thiazol-2-yl]-piperidin-1-yl}-pyrimidine]: 77%; `CCc1cnc(N2CCC(c3nc(CNc4ccc(-n5cnnn5)cc4)cs3)CC2)nc1` [Example 161, {2-[1-(5-Ethyl-pyrimidin-2-yl)-piperidin-4-yl]-thiazol-4-ylmethyl}-(4-tetrazol-1-yl-phenyl)-amine]: 79%.
In the case of `CC(C)c1cnc(N2CCC(c3nc(COc4ccc(-n5cnnn5)cc4F)cs3)CC2)nc1` [Example 162, 2-{4-[4-(2-Fluoro-4-tetrazol-1-yl-phenoxymethyl)-thiazol-2-yl]-piperidin-1-yl}-5-isopropyl-pyrimidine], the activation at 10 µM worked out at 79%.
